The test system of experiment [1] is Staphylococcus aureus. The experiment is described as follows: Antibiofilm activity against methicillin-resistant Staphylococcus aureus assessed as inhibition of biofilm formation incubated for overnight by crystal violet staining based microtiter plate assay. In kind it is functional, organism-based.
In experiment [2] the test system is Staphylococcus aureus. As to the kind of experiment: Antibiofilm activity against methicillin-resistant Staphylococcus aureus assessed as inhibition of biofilm formation by measuring residual biofilm growth incubated for overnight at 10-fold dilution by crystal violet staining based microtiter plate assay relative to control. The class given is functional.
Experiment [3] concerns Staphylococcus aureus. The experiment is described as follows: Antibacterial activity against methicillin-resistant Staphylococcus aureus assessed as alteration in bacterial growth incubated for overnight by microtiter plate based spectrophotometric analysis. In kind it is functional, organism-based.

The source of these data is ChEMBL document CHEMBL4376833, “Influence of Non-natural Cationic Amino Acids on the Biological Activity Profile of Innate Defense Regulator Peptides” (J Med Chem, 2019).

Active and inactive are the calls of the source. How the calls were made is not given here. Non-standard residues stand in square brackets, D forms with d. Residues, ends and D or L forms follow the SMILES beside them. hArg = N=C(N)NCCCC[C@H](N)C(=O)O; Agb = N=C(N)NCC[C@H](N)C(=O)O; Agp = N=C(N)NC[C@H](N)C(=O)O; Orn = NCCC[C@H](N)C(=O)O; Dab = NCC[C@H](N)C(=O)O; Dap = NC[C@H](N)C(=O)O

Take `CC[C@H](C)[C@H](NC(=O)[C@H](CCCNC(=N)N)NC(=O)[C@@H](NC(=O)[C@H](C)NC(=O)[C@@H](NC(=O)[C@@H](NC(=O)[C@H](CC(C)C)NC(=O)[C@H](CN)NC(=O)[C@@H](N)C(C)C)[C@@H](C)CC)C(C)C)C(C)C)C(=O)N[C@@H](Cc1c[nH]c2ccccc12)C(=O)N[C@@H](CCCNC(=N)N)C(=O)N[C@@H](CCCNC(=N)N)C(N)=O` (H-V[Dap]LIVAVRIWRR-NH2): the inhibition result in the experiment with Staphylococcus aureus [1] was “Dose-dependent effect”. In the experiment on Staphylococcus aureus [2], the “residual biofilm growth (% of control)” value turned out to be 19.1%. For the same molecule, the result in the experiment on Staphylococcus aureus [3] was Active.
Taken in the same sequence, the figures for `CC[C@H](C)[C@H](NC(=O)[C@H](CCCNC(=N)N)NC(=O)[C@@H](NC(=O)[C@H](C)NC(=O)[C@@H](NC(=O)[C@@H](NC(=O)[C@H](CC(C)C)NC(=O)[C@H](CCCN)NC(=O)[C@@H](N)C(C)C)[C@@H](C)CC)C(C)C)C(C)C)C(=O)N[C@@H](Cc1c[nH]c2ccccc12)C(=O)N[C@@H](CCCNC(=N)N)C(=O)N[C@@H](CCCNC(=N)N)C(N)=O` (H-V[Orn]LIVAVRIWRR-NH2) were “Dose-dependent effect”, 13.2% and “Active”.
Taken in the same sequence, the figures for `CC[C@H](C)[C@H](NC(=O)[C@H](CCCNC(=N)N)NC(=O)[C@@H](NC(=O)[C@H](C)NC(=O)[C@@H](NC(=O)[C@@H](NC(=O)[C@H](CC(C)C)NC(=O)[C@H](CCCCNC(=N)N)NC(=O)[C@@H](N)C(C)C)[C@@H](C)CC)C(C)C)C(C)C)C(=O)N[C@@H](Cc1c[nH]c2ccccc12)C(=O)N[C@@H](CCCNC(=N)N)C(=O)N[C@@H](CCCNC(=N)N)C(N)=O` (H-V[hArg]LIVAVRIWRR-NH2) were “Dose-dependent effect”, 38.4% and “Active”.
For `CC[C@H](C)[C@H](NC(=O)[C@H](CCCNC(=N)N)NC(=O)[C@@H](NC(=O)[C@H](C)NC(=O)[C@@H](NC(=O)[C@@H](NC(=O)[C@H](CC(C)C)NC(=O)[C@H](CCCNC(=N)N)NC(=O)[C@@H](N)CCNC(=N)N)[C@@H](C)CC)C(C)C)C(C)C)C(=O)N[C@@H](Cc1c[nH]c2ccccc12)C(=O)N[C@@H](CCCNC(=N)N)C(=O)N[C@@H](CCCNC(=N)N)C(N)=O` (H-[Agb]RLIVAVRIWRR-NH2) the same measures were “Dose-dependent effect”, 13.6% and “Active”.
As for `CC[C@H](C)[C@H](NC(=O)[C@H](CCCNC(=N)N)NC(=O)[C@@H](NC(=O)[C@H](C)NC(=O)[C@@H](NC(=O)[C@@H](NC(=O)[C@H](CC(C)C)NC(=O)[C@H](CCCNC(=N)N)NC(=O)[C@@H](N)CNC(=N)N)[C@@H](C)CC)C(C)C)C(C)C)C(=O)N[C@@H](Cc1c[nH]c2ccccc12)C(=O)N[C@@H](CCCNC(=N)N)C(=O)N[C@@H](CCCNC(=N)N)C(N)=O` (H-[Agp]RLIVAVRIWRR-NH2), in the experiment with Staphylococcus aureus [1], the inhibition entry is “Dose-dependent effect”. Moreover, the “residual biofilm growth (% of control)” value with Staphylococcus aureus [2] worked out at 10.6%. Moreover, in the experiment with Staphylococcus aureus [3], the result was Active.
For `CC[C@H](C)[C@H](NC(=O)[C@H](CCCNC(=N)N)NC(=O)[C@@H](NC(=O)[C@H](C)NC(=O)[C@@H](NC(=O)[C@@H](NC(=O)[C@H](CC(C)C)NC(=O)[C@H](CCCNC(=N)N)NC(=O)[C@@H](N)CCN)[C@@H](C)CC)C(C)C)C(C)C)C(=O)N[C@@H](Cc1c[nH]c2ccccc12)C(=O)N[C@@H](CCCNC(=N)N)C(=O)N[C@@H](CCCNC(=N)N)C(N)=O` (H-[Dab]RLIVAVRIWRR-NH2) the same measures were “Dose-dependent effect”, 14.2% and “Active”.
For `CC[C@H](C)[C@H](NC(=O)[C@H](CCCNC(=N)N)NC(=O)[C@@H](NC(=O)[C@H](C)NC(=O)[C@@H](NC(=O)[C@@H](NC(=O)[C@H](CC(C)C)NC(=O)[C@H](CCCNC(=N)N)NC(=O)[C@@H](N)CN)[C@@H](C)CC)C(C)C)C(C)C)C(=O)N[C@@H](Cc1c[nH]c2ccccc12)C(=O)N[C@@H](CCCNC(=N)N)C(=O)N[C@@H](CCCNC(=N)N)C(N)=O` (H-[Dap]RLIVAVRIWRR-NH2) the same measures were “Dose-dependent effect”, 8.5% and “Active”.
Taken in the same sequence, the figures for `CC[C@H](C)[C@H](NC(=O)[C@H](CCCNC(=N)N)NC(=O)[C@@H](NC(=O)[C@H](C)NC(=O)[C@@H](NC(=O)[C@@H](NC(=O)[C@H](CC(C)C)NC(=O)[C@H](CCCNC(=N)N)NC(=O)[C@@H](N)CCCN)[C@@H](C)CC)C(C)C)C(C)C)C(=O)N[C@@H](Cc1c[nH]c2ccccc12)C(=O)N[C@@H](CCCNC(=N)N)C(=O)N[C@@H](CCCNC(=N)N)C(N)=O` (H-[Orn]RLIVAVRIWRR-NH2) were “Dose-dependent effect”, 12.2% and “Active”.
As for `CC[C@H](C)[C@H](NC(=O)[C@H](CCCNC(=N)N)NC(=O)[C@@H](NC(=O)[C@H](C)NC(=O)[C@@H](NC(=O)[C@@H](NC(=O)[C@H](CC(C)C)NC(=O)[C@H](CCCNC(=N)N)NC(=O)[C@@H](N)CCCCNC(=N)N)[C@@H](C)CC)C(C)C)C(C)C)C(=O)N[C@@H](Cc1c[nH]c2ccccc12)C(=O)N[C@@H](CCCNC(=N)N)C(=O)N[C@@H](CCCNC(=N)N)C(N)=O` (H-[hArg]RLIVAVRIWRR-NH2), the inhibition result in the experiment with Staphylococcus aureus [1] was “Dose-dependent effect”. For the same molecule, the “residual biofilm growth (% of control)” value in the experiment with Staphylococcus aureus [2] is on record as 17.1%. Moreover, in the experiment with Staphylococcus aureus [3], the outcome was Active.
Taken in the same sequence, the figures for H-KRLIVAVRIWRR-NH2 were “Dose-dependent effect”, 12% and “Active”.
Taken in the same sequence, the figures for H-RRLIVAVRIWRR-NH2 were “Dose-dependent effect”, 12.2% and “Active”.
Turning to H-VKLIVAVRIWRR-NH2, the inhibition result with Staphylococcus aureus [1] is “Dose-dependent effect”. For the same molecule, the “residual biofilm growth (% of control)” value in the experiment on Staphylococcus aureus [2] is 7.6%. Besides, in the experiment with Staphylococcus aureus [3], the result was Active.
Taken in the same sequence, the figures for H-VRKIVAVRIWRR-NH2 were “Dose-dependent effect”, 88.8% and “Active”.
For the molecule H-VRLIKAVRIWRR-NH2, the inhibition result in the experiment with Staphylococcus aureus [1] is “Dose-dependent effect”. The “residual biofilm growth (% of control)” value in the experiment on Staphylococcus aureus [2] was 102%. Further, in the experiment on Staphylococcus aureus [3], the outcome was Active.
For H-VRLIRAVRIWRR-NH2 the same measures were “Dose-dependent effect”, 102% and “Active”.
Turning to H-VRLIVAKRIWRR-NH2, the inhibition result in the experiment on Staphylococcus aureus [1] is “Dose-dependent effect”. Besides, in the experiment on Staphylococcus aureus [2], the “residual biofilm growth (% of control)” value amounted to 101.6%. Further, in the experiment on Staphylococcus aureus [3], the outcome was Active.
For H-VRLIVARRIWRR-NH2, in the experiment on Staphylococcus aureus [1], the inhibition result was “Dose-dependent effect”. Further, the “residual biofilm growth (% of control)” value in the experiment on Staphylococcus aureus [2] is given as 102.6%. The result in the experiment on Staphylococcus aureus [3] was Active.
For H-VRLIVAVKIWRR-NH2 the same measures were “Dose-dependent effect”, 17.9% and “Active”.
For H-VRLIVAVRIKRR-NH2 the same measures were “Dose-dependent effect”, 44.7% and “Active”.
Taken in the same sequence, the figures for H-VRLIVAVRIRRR-NH2 were “Dose-dependent effect”, 33.2% and “Active”.
Regarding H-VRLIVAVRIWKR-NH2, the inhibition entry with Staphylococcus aureus [1] is “Dose-dependent effect”. The “residual biofilm growth (% of control)” value in the experiment with Staphylococcus aureus [2] is 11.8%. The result with Staphylococcus aureus [3] was Active.
For H-VRLIVAVRIWRK-NH2 the same measures were “Dose-dependent effect”, 6% and “Active”.
Taken in the same sequence, the figures for H-VRLIVAVRKWRR-NH2 were “Dose-dependent effect”, 95.8% and “Active”.
In the case of H-VRLIVAVRRWRR-NH2, the inhibition entry in the experiment on Staphylococcus aureus [1] is “Dose-dependent effect”. Moreover, the “residual biofilm growth (% of control)” value in the experiment with Staphylococcus aureus [2] is listed as 70.2%. Moreover, in the experiment with Staphylococcus aureus [3], the result was Active.
Taken in the same sequence, the figures for H-VRLKVAVRIWRR-NH2 were “Dose-dependent effect”, 10.7% and “Active”.
For H-VRLRVAVRIWRR-NH2 the same measures were “Dose-dependent effect”, 15% and “Active”.
For H-VRRIVAVRIWRR-NH2 the same measures were “Dose-dependent effect”, 83.7% and “Active”.
